Source: the kinase profiling compilation of Christmann-Franck et al. (2016)

Experiments:
Assay in all cases: KINOMEscan competition binding
Conditions in all cases: compound 1.0 µM
[1] = biological target: ABL1 (human) (UniProt P00519)
[2] = biological target: YSK4 (human) (UniProt Q56UN5)
[3] = biological target: MARK2 (human) (UniProt Q7KZI7)
[4] = biological target: RPS6KA2 KD2 (human) (UniProt Q15349)
[5] = biological target: STK11 (human) (UniProt Q15831)
[6] = biological target: CAMK2D (human) (UniProt Q13557)
[7] = biological target: CAMK2B (human) (UniProt Q13554)
[8] = biological target: CSNK2A1 (human) (UniProt P68400)
[9] = biological target: IRAK3 (human) (UniProt Q9Y616)
[10] = biological target: TYK2 JH2 pseudokinase (human) (UniProt P29597)
[11] = biological target: ALK (human) (UniProt Q9UM73)
[12] = biological target: FYN (human) (UniProt P06241)
[13] = biological target: PTK6 (human) (UniProt Q13882)
[14] = biological target: FRK (human) (UniProt P42685)
[15] = biological target: MAP2K1 (human) (UniProt Q02750)
[16] = biological target: NTRK1 (human) (UniProt P04629)
[17] = biological target: LYN (human) (UniProt P07948)
[18] = system: RET (human), P07949 [M918T]
[19] = biological target: DDR2 (human) (UniProt Q16832)
[20] = biological target: FLT1 (human) (UniProt P17948)
[21] = biological target: TAOK3 (human) (UniProt Q9H2K8)
[22] = biological target: MYLK3 (human) (UniProt Q32MK0)
[23] = biological target: EPHA1 (human) (UniProt P21709)
[24] = biological target: FGFR4 (human) (UniProt P22455)
[25] = system: FLT3 (human), P36888 [ITD]
[26] = biological target: JAK1 JH1 catalytic (human) (UniProt P23458)
[27] = biological target: MAPK3 (human) (UniProt P27361)
[28] = biological target: MYLK (human) (UniProt Q15746)
[29] = biological target: SIK3 (human) (UniProt Q9Y2K2)
[30] = biological target: SRPK3 (human) (UniProt Q9UPE1)
[31] = biological target: CDK2 (human) (UniProt P24941)
[32] = biological target: MAPKAPK5 (human) (UniProt Q8IW41)
[33] = biological target: FGFR3 (human) (UniProt P22607)
[34] = biological target: EPHB6 (human) (UniProt O15197)
[35] = biological target: MARK3 (human) (UniProt P27448)
[36] = biological target: EPHA5 (human) (UniProt P54756)
[37] = biological target: MAP4K2 (human) (UniProt Q12851)
[38] = biological target: RPS6KA4 KD1 (human) (UniProt O75676)
[39] = biological target: PRKACA (human) (UniProt P17612)
[40] = biological target: LATS2 (human) (UniProt Q9NRM7)

RPS6KA4 KD1 (human), sequence (O75676 whole entry, looked up): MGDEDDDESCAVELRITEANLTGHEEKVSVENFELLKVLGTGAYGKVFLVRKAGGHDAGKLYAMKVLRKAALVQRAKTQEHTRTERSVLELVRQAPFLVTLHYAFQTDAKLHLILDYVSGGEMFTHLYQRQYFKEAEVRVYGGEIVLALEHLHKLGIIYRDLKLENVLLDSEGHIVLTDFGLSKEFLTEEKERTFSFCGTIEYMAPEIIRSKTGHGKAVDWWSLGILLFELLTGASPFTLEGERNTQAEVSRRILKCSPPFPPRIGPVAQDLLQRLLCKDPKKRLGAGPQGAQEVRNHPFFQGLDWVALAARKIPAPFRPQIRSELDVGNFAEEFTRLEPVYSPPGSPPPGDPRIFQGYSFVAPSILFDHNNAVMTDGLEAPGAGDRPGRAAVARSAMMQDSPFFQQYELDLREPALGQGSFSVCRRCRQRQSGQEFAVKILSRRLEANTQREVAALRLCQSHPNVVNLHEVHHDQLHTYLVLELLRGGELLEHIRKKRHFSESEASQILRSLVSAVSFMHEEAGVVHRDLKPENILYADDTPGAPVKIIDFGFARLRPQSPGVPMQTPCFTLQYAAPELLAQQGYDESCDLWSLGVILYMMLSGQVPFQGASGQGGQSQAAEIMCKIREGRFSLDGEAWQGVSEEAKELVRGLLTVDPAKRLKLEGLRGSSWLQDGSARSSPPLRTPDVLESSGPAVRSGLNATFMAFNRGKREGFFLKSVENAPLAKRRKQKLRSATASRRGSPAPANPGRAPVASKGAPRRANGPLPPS
MAPKAPK5 (human), sequence (Q8IW41 whole entry, looked up): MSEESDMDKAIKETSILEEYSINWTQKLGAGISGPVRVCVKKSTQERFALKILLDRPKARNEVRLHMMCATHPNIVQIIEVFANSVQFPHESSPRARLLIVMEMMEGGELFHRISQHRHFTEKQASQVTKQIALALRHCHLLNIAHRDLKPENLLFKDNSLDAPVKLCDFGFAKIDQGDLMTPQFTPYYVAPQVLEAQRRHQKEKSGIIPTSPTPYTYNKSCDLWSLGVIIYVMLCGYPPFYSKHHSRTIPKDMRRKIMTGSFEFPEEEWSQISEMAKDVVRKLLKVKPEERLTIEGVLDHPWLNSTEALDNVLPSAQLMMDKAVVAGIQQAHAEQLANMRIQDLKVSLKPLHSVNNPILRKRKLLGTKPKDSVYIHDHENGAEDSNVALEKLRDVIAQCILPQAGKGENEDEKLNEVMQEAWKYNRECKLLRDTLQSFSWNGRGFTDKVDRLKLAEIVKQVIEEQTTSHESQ
MYLK (human), sequence (Q15746 whole entry, looked up): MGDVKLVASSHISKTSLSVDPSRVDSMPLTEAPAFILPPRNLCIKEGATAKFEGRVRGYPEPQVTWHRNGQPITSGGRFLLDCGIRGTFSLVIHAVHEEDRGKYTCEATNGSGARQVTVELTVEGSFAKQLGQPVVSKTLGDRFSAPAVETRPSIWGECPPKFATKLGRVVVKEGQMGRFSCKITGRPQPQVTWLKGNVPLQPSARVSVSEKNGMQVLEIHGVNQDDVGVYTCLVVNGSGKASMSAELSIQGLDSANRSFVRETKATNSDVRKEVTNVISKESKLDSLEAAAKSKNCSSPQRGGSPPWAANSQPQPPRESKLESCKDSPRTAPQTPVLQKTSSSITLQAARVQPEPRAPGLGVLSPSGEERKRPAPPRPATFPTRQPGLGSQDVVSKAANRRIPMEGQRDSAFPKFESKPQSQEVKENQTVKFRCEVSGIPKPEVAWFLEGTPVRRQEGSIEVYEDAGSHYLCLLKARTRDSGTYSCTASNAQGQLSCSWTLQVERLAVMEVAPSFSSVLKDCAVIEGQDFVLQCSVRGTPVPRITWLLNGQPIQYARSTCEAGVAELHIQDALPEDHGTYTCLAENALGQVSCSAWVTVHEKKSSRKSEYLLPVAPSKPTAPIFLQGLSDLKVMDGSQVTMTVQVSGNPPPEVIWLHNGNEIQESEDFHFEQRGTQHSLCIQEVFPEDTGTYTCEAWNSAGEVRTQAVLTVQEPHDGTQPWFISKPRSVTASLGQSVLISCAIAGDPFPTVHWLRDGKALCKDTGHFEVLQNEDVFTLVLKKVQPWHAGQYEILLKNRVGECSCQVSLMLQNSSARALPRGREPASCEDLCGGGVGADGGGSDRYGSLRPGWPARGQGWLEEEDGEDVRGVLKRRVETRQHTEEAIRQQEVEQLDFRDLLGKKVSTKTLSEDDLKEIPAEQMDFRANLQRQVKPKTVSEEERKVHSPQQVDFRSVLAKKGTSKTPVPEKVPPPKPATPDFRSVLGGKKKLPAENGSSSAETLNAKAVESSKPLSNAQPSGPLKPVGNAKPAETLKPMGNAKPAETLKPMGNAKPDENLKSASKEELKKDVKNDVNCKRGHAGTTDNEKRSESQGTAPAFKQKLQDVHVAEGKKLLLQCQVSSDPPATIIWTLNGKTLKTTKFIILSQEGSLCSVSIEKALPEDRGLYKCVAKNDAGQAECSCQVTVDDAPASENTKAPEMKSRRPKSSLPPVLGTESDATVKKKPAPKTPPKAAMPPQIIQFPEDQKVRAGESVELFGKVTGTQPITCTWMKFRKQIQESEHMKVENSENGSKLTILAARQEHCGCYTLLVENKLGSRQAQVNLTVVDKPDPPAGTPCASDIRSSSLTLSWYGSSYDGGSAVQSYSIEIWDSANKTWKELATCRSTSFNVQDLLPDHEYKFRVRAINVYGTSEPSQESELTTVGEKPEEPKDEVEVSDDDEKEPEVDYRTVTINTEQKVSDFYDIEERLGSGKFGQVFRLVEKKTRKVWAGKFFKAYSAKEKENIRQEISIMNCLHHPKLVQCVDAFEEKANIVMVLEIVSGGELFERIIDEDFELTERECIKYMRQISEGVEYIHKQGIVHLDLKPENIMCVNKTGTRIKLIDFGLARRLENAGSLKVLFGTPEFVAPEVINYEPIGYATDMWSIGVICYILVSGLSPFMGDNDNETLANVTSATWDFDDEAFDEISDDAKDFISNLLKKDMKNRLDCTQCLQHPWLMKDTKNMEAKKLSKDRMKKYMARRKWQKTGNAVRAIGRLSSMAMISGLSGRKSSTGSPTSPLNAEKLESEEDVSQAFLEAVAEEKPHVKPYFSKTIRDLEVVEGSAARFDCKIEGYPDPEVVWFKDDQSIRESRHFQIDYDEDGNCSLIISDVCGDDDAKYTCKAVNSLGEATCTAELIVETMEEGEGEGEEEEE
SIK3 (human), sequence (Q9Y2K2 whole entry, looked up): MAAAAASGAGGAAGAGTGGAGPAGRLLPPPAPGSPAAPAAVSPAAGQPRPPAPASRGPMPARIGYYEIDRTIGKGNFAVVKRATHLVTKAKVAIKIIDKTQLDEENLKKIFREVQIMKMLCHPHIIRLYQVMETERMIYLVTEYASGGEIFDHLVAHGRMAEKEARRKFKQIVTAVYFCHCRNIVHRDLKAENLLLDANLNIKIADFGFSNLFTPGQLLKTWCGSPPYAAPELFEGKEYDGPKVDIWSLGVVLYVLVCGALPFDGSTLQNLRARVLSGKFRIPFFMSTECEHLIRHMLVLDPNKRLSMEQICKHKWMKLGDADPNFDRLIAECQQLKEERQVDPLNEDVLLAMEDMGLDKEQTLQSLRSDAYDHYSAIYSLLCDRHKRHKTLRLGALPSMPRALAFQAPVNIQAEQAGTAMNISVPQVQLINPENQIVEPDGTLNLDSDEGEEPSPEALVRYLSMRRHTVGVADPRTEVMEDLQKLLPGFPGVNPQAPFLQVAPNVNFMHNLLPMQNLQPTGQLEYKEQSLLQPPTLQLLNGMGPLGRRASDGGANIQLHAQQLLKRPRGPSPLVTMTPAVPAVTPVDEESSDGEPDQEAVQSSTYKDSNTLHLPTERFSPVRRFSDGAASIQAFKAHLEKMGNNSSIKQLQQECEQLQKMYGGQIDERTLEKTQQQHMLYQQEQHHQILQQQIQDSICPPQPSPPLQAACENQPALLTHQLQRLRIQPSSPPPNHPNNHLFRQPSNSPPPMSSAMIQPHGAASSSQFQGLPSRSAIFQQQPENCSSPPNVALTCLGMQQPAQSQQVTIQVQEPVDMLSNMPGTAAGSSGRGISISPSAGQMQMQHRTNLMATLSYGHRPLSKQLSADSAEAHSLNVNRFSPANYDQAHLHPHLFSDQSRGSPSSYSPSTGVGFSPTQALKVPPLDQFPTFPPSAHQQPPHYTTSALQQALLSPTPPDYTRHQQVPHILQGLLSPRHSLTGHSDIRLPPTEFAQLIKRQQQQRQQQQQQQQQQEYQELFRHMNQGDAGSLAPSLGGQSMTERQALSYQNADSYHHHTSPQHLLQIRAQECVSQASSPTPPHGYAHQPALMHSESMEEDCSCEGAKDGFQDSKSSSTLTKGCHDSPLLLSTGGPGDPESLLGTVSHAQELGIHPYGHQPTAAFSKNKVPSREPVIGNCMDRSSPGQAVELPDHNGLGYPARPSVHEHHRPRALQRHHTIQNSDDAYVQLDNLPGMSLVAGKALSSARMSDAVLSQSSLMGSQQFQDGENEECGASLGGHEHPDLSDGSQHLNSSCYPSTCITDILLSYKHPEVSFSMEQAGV
LYN (human), sequence (P07948 whole entry, looked up): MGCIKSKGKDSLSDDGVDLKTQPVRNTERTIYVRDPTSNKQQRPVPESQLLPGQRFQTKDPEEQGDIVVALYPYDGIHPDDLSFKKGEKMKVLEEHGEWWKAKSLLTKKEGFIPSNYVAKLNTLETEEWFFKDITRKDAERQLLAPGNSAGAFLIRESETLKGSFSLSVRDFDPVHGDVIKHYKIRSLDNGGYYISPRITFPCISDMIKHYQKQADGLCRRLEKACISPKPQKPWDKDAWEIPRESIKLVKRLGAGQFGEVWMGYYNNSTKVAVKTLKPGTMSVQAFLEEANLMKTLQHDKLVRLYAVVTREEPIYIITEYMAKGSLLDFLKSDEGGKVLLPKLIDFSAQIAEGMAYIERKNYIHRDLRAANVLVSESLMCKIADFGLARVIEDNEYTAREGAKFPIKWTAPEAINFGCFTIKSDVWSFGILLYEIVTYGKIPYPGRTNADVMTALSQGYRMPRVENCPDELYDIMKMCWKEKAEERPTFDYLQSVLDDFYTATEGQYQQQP

## Nc1cc(C(F)(F)F)c(-c2cc(N3CCOCC3)nc(N3CCOCC3)n2)cn1
[1]
  inhibition of binding: 0%
[2]
  inhibition of binding: 21%
[3]
  inhibition of binding: 0%
[4]
  inhibition of binding: 16%
[5]
  inhibition of binding: 0%
[6]
  inhibition of binding: 0%
[7]
  inhibition of binding: 18%
[8]
  inhibition of binding: 0%
[9]
  inhibition of binding: 0%
[10]
  inhibition of binding: 12%
[11]
  inhibition of binding: 6%
[12]
  inhibition of binding: 0%
[13]
  inhibition of binding: 0%
[14]
  inhibition of binding: 0%
[15]
  inhibition of binding: 0%
[16]
  inhibition of binding: 4%
[17]
  inhibition of binding: 0%
[18]
  inhibition of binding: 13%
[19]
  inhibition of binding: 19%
[20]
  inhibition of binding: 0%
[21]
  inhibition of binding: 10%
[22]
  inhibition of binding: 0%
[23]
  inhibition of binding: 2%
[24]
  inhibition of binding: 0%
[25]
  inhibition of binding: 0%
[26]
  inhibition of binding: 38%
[27]
  inhibition of binding: 1%
[28]
  inhibition of binding: 12%
[29]
  inhibition of binding: 0%
[30]
  inhibition of binding: 0%
[31]
  inhibition of binding: 30%
[32]
  inhibition of binding: 0%
[33]
  inhibition of binding: 7%
[34]
  inhibition of binding: 3%
[35]
  inhibition of binding: 0%
[36]
  inhibition of binding: 0%
[37]
  inhibition of binding: 17%
[38]
  inhibition of binding: 4%
[39]
  inhibition of binding: 0%
[40]
  inhibition of binding: 19%
